Measurements reported in publication PMC3503449 (Breast cancer research and treatment, 2008).

Biological target: estrogen receptor α (ERα) (Homo sapiens, UniProt P03372)
Experiment: ERE-luciferase reporter, antagonism of EXE-induced ER activity
Type: cell-based

Sequence of estrogen receptor α (ERα) (P03372 whole entry): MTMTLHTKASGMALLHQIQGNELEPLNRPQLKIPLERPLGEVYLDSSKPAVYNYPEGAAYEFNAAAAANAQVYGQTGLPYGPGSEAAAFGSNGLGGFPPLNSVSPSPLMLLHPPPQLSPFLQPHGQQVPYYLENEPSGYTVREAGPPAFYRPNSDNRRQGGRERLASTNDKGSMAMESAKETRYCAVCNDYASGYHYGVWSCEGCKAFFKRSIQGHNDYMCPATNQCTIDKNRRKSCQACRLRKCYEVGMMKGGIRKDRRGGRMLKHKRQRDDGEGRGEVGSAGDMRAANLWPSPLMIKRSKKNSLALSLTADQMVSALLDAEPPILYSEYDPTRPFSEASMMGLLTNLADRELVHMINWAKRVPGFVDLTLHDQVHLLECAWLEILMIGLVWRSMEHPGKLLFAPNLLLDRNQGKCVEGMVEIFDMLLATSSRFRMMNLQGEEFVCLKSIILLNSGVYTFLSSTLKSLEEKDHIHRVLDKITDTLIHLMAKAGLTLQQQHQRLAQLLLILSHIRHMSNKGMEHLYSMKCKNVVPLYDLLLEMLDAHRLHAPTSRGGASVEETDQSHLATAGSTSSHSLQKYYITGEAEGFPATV

C[C@]12CC[C@@H]3c4ccc(O)cc4C[C@@H](CCCCCCCCC[S+]([O-])CCCC(F)(F)C(F)(F)F)[C@H]3[C@@H]1CC[C@@H]2O (stereo partly shown) [ICI, ICI 182780]
ERE-luciferase reporter, antagonism of EXE-induced ER activity: ER activity was inhibited using the pure ER antagonist ICI
